Reference: patent US20160008391A1, “GALACTOSAMINOGALACTAN COMPRISING alpha-1-4 LINKED GALACTOSE AND alpha-1-4 LINKED N-ACETYLGALACTOSAMINE FOR USE IN THE TREATMENT OF AT LEAST ONE INFLAMMATORY DISEASE” (INSTITUT PASTEUR, priority 2013, published 2016)

How the values were obtained:
human PBMCs [1] = test: Cytokine-driven (IL-1β/IL-23, IL-12/IL-18) T-helper cytokine responses in human PBMCs; assay type: cell-based; conditions: 7 days, presence vs absence of recombinant human IL-1RA 10 ng/ml
Experimental: (§1) A clinical isolate of Aspergillus fumigatus V05-27, which has been characterized previously was used for stimulations (Netea et al., 2003). Conidia and hyphae were prepared and heat-inactivated (HI) as previously described (Chai et al., 2009a). A concentration of 1×10^7/ml was used in the experiments, unless otherwise indicated. C. albicans, strain ATCC MYA-3573 (UC820) (Gow et al., 2007; Lehrer and Cline, 1969). Candida were heat-killed (HK) at 98° C. for 1 hour and used in a final concentration of 1×10^7/ml. Recombinant human IL-1β, IL-23, IL-12 and IL-18 were purchased from R&D Systems (Minneapolis, Minn., USA) and were used in end concentrations of 100 ng/ml, 50 ng/ml, 10 ng/ml and 50 ng/ml respectively. Recombinant human (rh) IL-1Ra (Amgen, Inc., Thousand Oaks, Calif., USA) was used to antagonize IL-1β signalling at a final concentration of 10 ng/ml. Anti-human IL-1Ra (R&D) was used to block IL-1Ra in a final concentration of 10 μg/ml, and was compared to isotype control. Pattern recognition pathways were inhibited in PBMCs by pre-stimulation for 1 hour with a specific inhibitor. LPS derived from Bartonella quitana was used to block TLR4 (Abdollahi-Roodsaz et al., 2007). B. quitana LPS was extracted and purified as described previously (Hirschfeld et al., 1999). Mouse anti-humanTLR-2 (eBioscience, Halle-Zoersel, Belgium) and control mouse IgG1 (eBioscience) were used at a final concentration of 10 μg/mL. Anti-human integrin β2 (αCR3) and control goat IgG were purchased from R&D systems (Minneapolis, Minn., USA) and used in a final concentration of 10 μg/mL. […]
(§2) Venous blood from healthy volunteers was drawn into 10 ml EDTA tubes after written informed consent, after which PBMCs were isolated as previously described (van de Veerdonk et al., 2009). […] The cells were counted using a particle counter (Beckmann Coulter, Woerden, The Netherlands) and the cell number was adjusted to 5×10^6/ml. […]
(§3) Cytokines were measured using commercially available ELISAs (R&D Systems)(Sanquin, Amsterdam, The Netherlands) according to the protocols supplied by the manufacturer. […]

human PBMCs [2] = test: A. fumigatus conidia-induced cytokine production in human PBMCs; assay type: cell-based; conditions: 7 days, presence vs absence of recombinant human IL-1RA 10 ng/ml
Experimental: as §1, §2, §3

[3] = cited from earlier work
DSS-induced colitis = test: Dextran sulfate sodium-induced colitis in WT and p47phox−/− mice; assay type: in vivo; conditions: WT and p47phox−/− mice treated with Anakinra
Experimental: Mice received either regular drinking water (control) or 2.5% dextran sulfate sodium (DSS) in drinking water for 7 days and then allowed to recover by drinking water alone for an additional 7 days. GAG was given intraperitoneally (1 mg/kg) daily for a week. Weight changes were recorded daily, and the day after the 7-days of rest mice were killed and tissues were collected for histology and cytokine analysis. Colonic sections were stained with H&E (Takedatsu 2008). To assess colitis severity, stool and histological scores were used that recently were introduced and proven sensitive to experimental therapy (PMID: 21763243).
Colitis was induced in C57BL/6 wild-type (WT) or p47phox^−/− mice that recapitulate several of the features of the human Chronic Granulomatous Disease (CGD) (Huang et al., 1998; Romani et al., 2008). Colitis is a severe complication of CGD patients, the management of which is a challenge because standard immunosuppressive therapy increases the risk of infection in already immunocompromised hosts (Huang et al., 2004). Colitis was induced with dextran sulfate sodium (DSS 2.5% in drinking water for 7 days and then allowed to recover by drinking water alone for an additional 7 days) and the effect of GAG (1 mg/kg intraperitoneally for a week) on colonic injury was assessed. The day after the 7-day of rest, mice were killed and tissues were collected for histology, RNA and cytokine analysis. Colonic sections were stained with H&E, and histology was scored. Cytokines were measured by enzyme-linked immunoabsorbent assay (ELISA) and real time-polymerase chain reaction (RT-PCR) on colonic tissues.

[4] = patients with rheumatoid arthritis

## IL-1RA: human recombinant form of interleukin-1 receptor antagonist, commercially produced as anakinra
Human PBMCs [1]
  IFNγ induction by IL-12/IL-18: reduced
  IL-17 induction by IL-1/IL-23: reduced
  IL-22 induction by IL-1/IL-23: reduced
Human PBMCs [2]
  IFNγ induction by Aspergillus conidia: reduced
  IL-17 induction by Aspergillus conidia: reduced
  IL-22 induction by Aspergillus conidia: reduced
[3]; human, in vivo
  side effect: diarrhea: 7%
  side effect: flu-like syndrome: 6%
  side effect: infections of upper respiratory tract: 13%
  side effect: nausea: 8%
  side effect: risk of infections: 40%
  side effect: severe infections: 2%
  side effect: sinusitis: 7%
[3]; [4]
  progressive joint destruction: slows
  symptoms of rheumatoid arthritis: reduces
DSS-induced colitis
  cytokine gene expression, compared with the effect of GAG: similar
  damage score, compared with the effect of GAG: similar
  inflammatory pathology, compared with the effect of GAG: similar
